Measured values as given in patent publication US12053523B2, “Compositions comprising chemotherapeutic agents and checkpoint inhibitors and methods of use” (NORTH CAROLINA STATE UNIVERSITY, priority 2017, dated 2024).
“Also recorded” adds a separate entry of the source. Where a name gives a salt, the structure may show the parent alone.

Experiments:
4T1 cancer cells = experiment: Effects of GEM in 4T1 cells in vitro (PD-L1 by flow cytometry); type: cell-based, mouse; conditions: GEM 0, 1, 2, 5, 10 μM for 48 hours, remaining live cells; hydrochloride
Protocol: The data are shown as mean±SD. Error bars are based on at least triplicate measurements. P value: *, P<0.05.
4T1 cells were reported to express low levels of PD-L1. […] For in vivo study, 4T1 were inoculated subcutaneously into the right flank of female BABL/c mice. After 7 days, the mice bearing 4T1 tumors were treated with GEM@Gel (200 μL, 10% w/w) (GEM: 5 mg/kg), aPD-L1@Gel (aPDL1: 50 μg per mouse) or GEM-aPD-L1@Gel (aPD-L1: 50 μg per mouse, GEM: 5 mg/kg).
The mouse melanoma cell line B16F10 and mouse mammary carcinoma cell line 4T1 were purchased from the American Type Culture Collection. B16F10-luc-GFP and 4T1-luc-GFP cells were gifts from Dr. Leaf Huang at the University of North Carolina at Chapel Hill. B16F10 cells were maintained in Dulbecco's Modified Eagle Medium (Gibco, Invitrogen) supplemented with 10% fetal bovine serum (Invitrogen, Carlsbad, CA), 100 U/mL penicillin (Invitrogen), and 100 […] (Invitrogen). 4T1 cells were maintained in RPMI-1640 Medium (Gibco, Invitrogen) supplemented with 10% fetal bovine serum (Invitrogen, Carlsbad, CA), 100 U/mL penicillin (Invitrogen), and 100 […] (Invitrogen). Master and working cell banks were generated immediately upon receipt. The third and fourth passages were used for the experiments. Cells were tested every three months to exclude the presence of mycoplasma. […]

[1] = GEM and aPDL1 release from PVA-TSPBA hydrogels; type: physicochemical; conditions: 37° C.
Protocol: FIGS. 1A, 1B, 1C, 1D, 1E, and 1F show a schematic and characterization of in situ formed reactive oxygen species (ROS)-responsive PVA-TSPBA scaffold. […] Scale bar, 0.5 μm. Inset: a zoom-in image of the scaffold. Scale bar, 0.1 μm. […] Scale bar, 25 μm. […] FIGS. 1E and IF show cumulative release profiles of GEM (1e) and aPDL1 (1f) from hydrogels when incubated with PBS with or without H2O2 (1 mM).
The TSPBA can be oxidized and hydrolyzed when exposed to H2O2 in the TME, leading to the dissociation of the polymeric scaffold and the release of PVA and payloads. To verify the ROS-sensitive degradability of the hydrogels, samples were immersed in phosphate-buffered saline (PBS) containing […] H2O2 at 37° C. […] The release profiles of GEM and aPD-L1 were quantified using high-performance liquid chromatography (HPLC) and enzyme-linked immunosorbent assay (ELISA), respectively. […] The release pattern was further examined in vivo after the intratumor injection of the drug-loaded scaffolds in the B16F10 mouse model. […] These distinct release dynamics facilitated the delivery of GEM and aPD-L1 into the TME for the intended sequential effects.
Release studies were performed at 37° C. with constant agitation in PBS. […] The released GEM was analyzed by HPLC and the antibody release was determined by Rat IgG total ELISA kit (eBioscience).

B16F10 cancer cells = experiment: Treatment of B16F10 cancer cells in vitro with GEM (flow cytometry, immunofluorescence, western blot); type: cell-based, mouse
Protocol: FIGS. 7A and 7B show the effects of GEM to cancer cells in vitro.
Circulating type 1 T helper (Th1) cytokines were also measured before and after GEM@Gel implantation (FIG. 6g).
The mouse melanoma cell line B16F10 and mouse mammary carcinoma cell line 4T1 were purchased from the American Type Culture Collection. B16F10-luc-GFP and 4T1-luc-GFP cells were gifts from Dr. Leaf Huang at the University of North Carolina at Chapel Hill. B16F10 cells were maintained in Dulbecco's Modified Eagle Medium (Gibco, Invitrogen) supplemented with 10% fetal bovine serum (Invitrogen, Carlsbad, CA), 100 U/mL penicillin (Invitrogen), and 100 […] (Invitrogen). 4T1 cells were maintained in RPMI-1640 Medium (Gibco, Invitrogen) supplemented with 10% fetal bovine serum (Invitrogen, Carlsbad, CA), 100 U/mL penicillin (Invitrogen), and 100 […] (Invitrogen). Master and working cell banks were generated immediately upon receipt. The third and fourth passages were used for the experiments. Cells were tested every three months to exclude the presence of mycoplasma. Authentication of cells was not performed after receipt.

Nc1ccn([C@@H]2O[C@H](CO)[C@@H](O)C2(F)F)c(=O)n1 [GEM, Gemcitabine hydrochloride]
PD-L1 expression in 4T1 cancer cells (4T1 cancer cells): induced PD-L1 expression; also recorded: PD-L1 upregulation
Release from the hydrogel in H2O2 solution compared to control PBS ([1]; H2O2 1 mM vs PBS): in a triggered manner
Release of GEM from the hydrogel ([1]; H2O2 solution (1 mM) in PBS, HPLC): great majority of GEM was released within one day
PD-L1 on surviving B16F10 cells (B16F10 cancer cells; GEM 5 μM, within 24 hours): significant PD-L1 upregulation
Dose and time dependence of PD-L1 expression on B16F10 cancer cells (B16F10 cancer cells; flow cytometry, immunofluorescence, western blot): GEM-dose- and time-dependent
Cell death of B16F10 cancer cells (B16F10 cancer cells; in vitro): resulted in cell death
Expression of PD-L1 in surviving B16F10 cells (B16F10 cancer cells; in vitro): increased expression of PD-L1
